Laboratory results as given in ChEMBL document CHEMBL1138383, “2-Arylidenedihydroindole-3-ones: design, synthesis, and biological activity on bladder carcinoma cell lines” (2007).

Key:
[1] = test system: J82; experiment: Effect on viability of J82 cells with FGFR3 K650E mutation at 10 uM after 72 hrs; format: functional, Homo sapiens
[2] = Effect on viability of DAG1 cells with FGFR3 S249C mutation at 10 uM after 72 hrs; format: functional, Homo sapiens
[3] = test system: RT-112; experiment: Effect on viability of RT112 cells overexpressing wild-type FGFR3 at 10 uM after 72 hrs; format: functional, Homo sapiens
[4] = Decrease in p-Stat5 antigen expression level in DAG1 cells with FGFR3 S249C mutation at 10 uM after 6 hrs by flow cytometry relative to control; format: functional, cell-based; conditions: Homo sapiens
[5] = test system: RT-112; experiment: Decrease in p-Pyk2 antigen expression level in RT112 cells overexpressing wild-type FGFR3 at 10 uM after 6 hrs by flow cytometry relative to control; format: functional, Homo sapiens
[6] = test system: RT-112; experiment: Induction of apoptosis in RT112 cells overexpressing wild-type FGFR3 at 10 uM after 48 hrs by flow cytometry; format: functional, Homo sapiens
[7] = test system: RT-112; experiment: Decrease in p-Stat5 antigen expression level in RT112 cells overexpressing wild-type FGFR3 at 10 uM after 6 hrs by flow cytometry relative to control; format: functional, Homo sapiens
[8] = test system: J82; experiment: Induction of apoptosis in J82 cells with FGFR3 K650E mutation at 10 uM after 48 hrs by flow cytometry; format: functional, Homo sapiens
[9] = Induction of apoptosis in DAG1 cells with FGFR3 S249C mutation at 10 uM after 48 hrs by flow cytometry; format: functional, Homo sapiens
[10] = Decrease in p-Pyk2 antigen expression level in DAG1 cells with FGFR3 S249C mutation at 10 uM after 6 hrs by flow cytometry relative to control; format: functional, cell-based; conditions: Homo sapiens

Compound | Activity [1] [%] | Activity [2] [%] | Activity [3] [%] | Activity [4] | Activity [5] | Activity [6] [%] | Activity [7] | Activity [8] [%] | Activity [9] [%] | Activity [10]
COc1cc2c(c(OC)c1)C(=O)/C(=C/c1[nH]cnc1C)N2 | 90 | 89 | 92 |  |  |  |  |  |  | 
COc1cc2c(c(OC)c1)C(=O)/C(=C/c1ccccc1F)N2 | 97 | 58 | 48 | 9.5 | 1.3 | 20 | 2.5 | 3 | 86 | 2
COc1cc2c(c(OC)c1)C(=O)/C(=C/c1ccc(Cl)cc1)N2 | 94 | 99 | 93 |  |  |  |  |  |  | 
COc1cc2c(c(OC)c1)C(=O)/C(=C/c1c(F)cccc1Cl)N2 | 95 | 91 | 93 |  |  |  |  |  |  | 
COc1cc2c(c(OC)c1)C(=O)/C(=C/c1ncc[nH]1)N2 | 89 | 90 | 92 |  |  |  |  |  |  | 
CCc1ccc(/C=C2\Nc3cc(OC)cc(OC)c3C2=O)cc1 | 99 | 98 | 97 |  |  |  |  |  |  | 
